Assay results published in patent US9452152B2, “Fe(III) complex compounds for the treatment and prophylaxis of iron deficiency symptoms and iron deficiency anemias” (Vifor (International) AG, priority 2012, dated 2016).

Experiments:
[1] = system: Male NMRI (SPF) mice fed a low-iron diet; test: Fe utilization in iron-deficient mouse model (hemoglobin and body weight increase); format: in vivo; details: for Utilization n 15 d (abs. %): mice, stomach tube, 2 mg iron/kg body weight/day, days 1-5 and 8-12, utilization on day 15; for iron utilization, Example according to the invention: comparison table, compounds of the invention
Description: The excellent Fe utilizations that can be accomplished through the Fe complexes according to the invention were measured by means of the following mouse model.
(In each case 6 animals per substance were used. There was a negative group (water) with 6 animals and as a positive group FeSO4 was used with 6 animals, too).
Male NMRI (SPF) mice (approximately 3 weeks old) were fed a low-iron diet (approx. 5 ppm iron) for approximately 3 weeks. The iron complexes were then administered to them by means of a stomach tube (2 mg iron/kg body weight/day) for 2 times 5 days, with an interruption of 2 days (days 1-5 and 8-12). Utilization on day 15 was calculated from the hemoglobin increase and the body weight increase in accordance with the formula
0.07=Factor for 70 ml blood per kg body weight (BW)
Hb1=Hemoglobin level (g/l) on day 1
Hb2(3)=Hemoglobin level (g/I) on day 8 (or 15)
BW4=body weight (g) on day 1
BW9(14)=body weight (g) on day 8 (or 15)
Hb1 Control=average hemoglobin level (g/l) on day 1 in the control group,
Hb2(3) Control=average hemoglobin level (g/l) on day 8 (or 15) in the control group,
BW4 Control=average body weight (g) on day 1 in the control group,
BW9(14) Control=average body weight (g) on day 8 (or 15) in the control group,
Fe Dos.=entire administered iron (mg Fe) over 5 or 10 days,
Δ Utilization=Fe tot. utilized (examined group)−Fe ut. Control group, utilized from food, (mg Fe)

[2] = Comparison of the pH-dependent solubility (photometric iron determination); format: physicochemical; details: water, pH 6.5 (phthalate buffer 0.1 m), 4 h, 25° C.; for Solubility based on amount of iron: ">" = weighed amount completely dissolved
Excerpt: The pH was adjusted to 6.5 with a phthalate buffer (0.1 m). […] UV device type SPECORD 205 manufacturer Jena Analytik). This value represents the solubility of the iron complex. If the weighed amount of the iron complex was completely dissolved, the measured value was indicated by the prefix “>”.

Substance	Utilization n 15 d (abs. %) [1]	iron utilization (statement in words) ([1]; mouse model)	iron utilization, Example according to the invention ([1]; mouse model)	optical evaluation: dissolved? [2]	Solubility based on amount of iron [2]
Tris-(2,4-dioxo-4-(pyrrolidine-1-yl)butaneamide)-iron(III)-complex [Example 4]	92 abs. %	–	–	–	–
Tris-(N^4,N^4-dimethyl-2-oxobutanediamide)-iron(III)-complex [Example 1]	98 abs. %	significantly improved iron utilization compared to Example 32 of WO11117225A1	98%	yes	0.529 mg/mL
Tris-(N,N,N′,N′-tetramethyl-2-oxobutanediamide)-iron(III)-complex [Example 5]	82 abs. %	–	82%	yes	>0.55 mg/mL
Tris-(N^1-(2-methoxyethyl)-N^4,N^4-dimethyl-2-oxobutanamid)-iron(III)-complex [Example 16]	65 abs. %	–	–	no	0.45 mg/mL
Tris-(ethyl-N-[4-(dimethylamino)-2,4-dioxobutanoyl]-N-methylglycinate)-iron(III)-complex [Example 17]	91 abs. %	–	–	no	0.47 mg/mL
Tris-(N^4-(2-hydroxyethyl)-N^1,N^1,N^4-trimethyl-2-oxobutanediamide)-iron(III)-complex [Example 21]	86 abs. %	–	86%	no	0.49 mg/mL
Tris-(N^4-[2-(dimethylamino)-2-oxoethyl]-N^1,N^1,N^4-trimethyl-2-oxobutanediamide)-iron(III)-complex [Example 12]	80 abs. %	–	–	yes	>0.51 mg/mL
Tris-(4-(morpholine-4-yl)-2,4-dioxobutaneamide)-iron(III)-complex [Example 2]	75 abs. %	–	75%	–	–
Tris-(N^4-(2-methoxyethyl)-N^1,N^1,N^4-trimethyl-2-oxobutanediamide)-iron(III)-complex [Example 13]	70 abs. %	–	–	yes	>0.52 mg/mL
Tris-(N^1-[2-(dimethylamino)-2-oxoethyl]-N^1,N^4,N^4-trimethyl-2-oxobutanediamide)-iron(III)-complex [Example 18]	78 abs. %	–	–	no	0.58 mg/mL
Tris-(N,N-Dimethyl-3,4-dioxo-4-(pyrrolidine-1-yl)butaneamide)-iron(III) complex [Example 11]	50 abs. %	–	–	–	–
Tris-(N^1,N^4,N^4-trimethyl-2-oxobutanediamide)-iron(III)-complex [Example 7]	68 abs. %	–	–	–	–
